Like-named read-outs stand apart in the source and are kept apart here.

One assay relates to MRSA. In words: MIC by tube dilution and Kull synergy index against MRSA. It counts as cell-based, Staphylococcus aureus. The conditions noted are these: for MIC: Staphylococcus aureus. The source says: (§1) MIC testing and synergistic effects studies. The microorganisms were clinically obtained isolates. Staphylococcus aureus is a clinically significant member of the gram-positive group of bacterial pathogens. It gives rise to serious infections, and can produce bacteremia, endocarditis, and meningitis. Methicillin-resistant strains of Staphylococcus aureus (MRSA) were chosen for evaluation because they are a significant medical problem, particularly in view of the fact that methicillin is a drug of choice for treatment of S. aureus infection in the common penicillin-resistant strains. Escherichia coli was also chosen for evaluation. E. coli is a gram-negative pathogenic enterobacteriaceae, and is commonly used as a model organism for bacteria in general. The E. coli strain O157:H7, one of hundreds of strains of the bacterium E. coli, causes illness in humans.
(§2) All individual components are present in the combination at a starting point of 10,000 μg/mL, or 1% unless otherwise noted in the parenthesis in the attached tables. Combinations are serially diluted to obtain the MIC. […]
(§3) Abbreviations in Tables 2 and 3 are as follows. MIC is the Minimum Inhibitory Concentration. MRSA is Methicillin-resistant Staphylococcus Aureus. E. coli is Escherichia coli. […] Pluronic® F127 is Pluronic® F127 microemulsion.
(§4) The Minimum Inhibitory Concentrations (MIC) were determined using tube dilution sensitivities. […] The cultures were incubated overnight at 37° C. and MICs were recorded. The MIC was determined as the lowest concentration of a combination which prevented visible microorganism growth (e.g., turbidity). A culture growth control without compound and several culture sensitive reference agents were used as positive controls. The assays were performed in triplicate.
(§5) Dilutions of the compositions were added to bacterial growth media (tryptic soy broth) to result in a set of tubes with a concentration range of 0.001 mg/L-1000 mg/L of the combination.
(§6) QB is the ppm (MIC) of active substance B alone which produces an endpoint. QC is the ppm (MIC) of active substance C alone which produces an endpoint. Qa is the ppm (MIC) of active substance A, in the combination, which produces an endpoint. Qb is the ppm (MIC) of active substance B, in the combination, which produces an endpoint. Qc is the ppm (MIC) of active substance C, in the combination, which produces an endpoint. And so on for Qn components.
(§7) If the SI of Qa/QA+Qb/QB+Qc/QC is less than one, synergy is indicated. A value greater than one indicates antagonism. A value equal to one indicates additivity.

The test system of a further assay is E. coli. Kind of assay: microbe, parasite or virus in culture. It counts as cell-based, Escherichia coli. To be noted: for MIC: Escherichia coli.
Description: as §1, §2, §3, §4, §5, §6, §7

The next assay has as its system resistant E. coli. Kind of assay: Additional synergy testing: combination plus 0.5X MIC of an antibiotic. It counts as cell-based, Escherichia coli.
[1] abbreviates: Table 2, MIC of Component 3 alone against MRSA.
Where [2] appears, read: Table 3, MIC of Component 1 alone against E. coli, read-out: 1-MIC-.
[3] abbreviates: Table 3, MIC of Component 2 alone against E. coli, read-out: 2-MIC-.
Setting [4] is: Table 2, MIC of Component 2 alone against MRSA.
Where [5] appears, read: Table 2, MIC of Component 2 alone against MRSA, read-out: 2-MIC-.
[6] abbreviates: Table 2, MIC of Component 1 alone against MRSA, read-out: 1-MIC-.

Regarding 2-hydroxypropyl-α-cyclodextrin, the 3-MIC- with MRSA (setting [1]) is given as 1001 ppm. Besides, the 3-MIC-MRSA in the assay on MRSA (Table 5, Component 3 alone) came out at 1001 ppm.

Regarding `Oc1cccc2cccnc12` [8-hydroxyquinoline], the MIC in the assay with E. coli (read-out: 3-MIC-) is 50 µg/mL; in the assay on MRSA (MRSA, read-out: 3-MIC-), 1.56 µg/mL; with MRSA (MRSA, read-out: 3-MIC-MRSA) it was 1.56 µg/mL.

For the compound `C=CCN=C=S` [Allyl isothiocyanate, allyl isothiocyanate], the MIC with E. coli (setting [2]) was determined as 1000 µg/mL; with E. coli (setting [3]) it was 1000 µg/mL; in the assay with MRSA (MRSA, read-out: 1-MIC-), 1000 µg/mL; with MRSA (MRSA, read-out: 2-MIC-), 1000 µg/mL; in the assay with MRSA (MRSA, read-out: 2-MIC-MRSA) it was 1000 µg/mL.

With `CC(O)(P(=O)(O)O)P(=O)(O)O` [HEDP, 1-hydroxyethylidene-1,1-diphosphonic acid], the 3-MIC- is 1001 ppm in the assay on E. coli (Table 3, MIC of Component 3 alone against E. coli) and 1001 ppm with MRSA (setting [1]). The 3-MIC-MRSA in the assay with MRSA (Table 5, Component 3 alone) is 1001 ppm.

For the compound `C=C(C)[C@H]1CC=C(C)CC1` [Limonene, limonene], the 1-MIC- in the assay on E. coli (Table 3, MIC of Component 1 alone against E. coli) is recorded as 1000 ppm; with MRSA (Table 2, MIC of Component 1 alone against MRSA) it was 1001 ppm. The 2-MIC- in the assay with E. coli (Table 3, MIC of Component 2 alone against E. coli) is reported as 1001 ppm; in the assay with MRSA (setting [4]) it was 1001 ppm. Also, in the assay with MRSA (Table 5, Comp. 1 alone), the 1-MIC-MRSA was 1001 ppm.

For `CN(C)c1ccc2nc3ccc(=[N+](C)C)cc-3sc2c1` [Methylene blue, methylene blue], the MIC in the assay with E. coli (setting [2]) amounted to 1000 µg/mL; with E. coli (setting [3]), 1000 µg/mL; in the assay with MRSA (setting [5]), 25 µg/mL.

On to `CCCCCCCCCCCCN(CCCN)CCCN` [N,N-bis(3-aminopropyl)-dodecylamine, N,N-bis-(3-aminopropyl)dodecylamine], for which the MIC in the assay on E. coli (setting [2]) stood at 25 µg/mL; in the assay on E. coli (setting [3]) it was 25 µg/mL; in the assay with MRSA (setting [6]), 12.5 µg/mL; in the assay with MRSA (setting [5]) it was 12.5 µg/mL.

As for `C=CC(C)(O)CCC=C(C)CCC=C(C)C` (stereo not shown) [Nerolidol, nerolidol], the MIC in the assay with E. coli (setting [2]) turned out to be 1000 µg/mL; with MRSA (MRSA, Table 5, Comp. 1 alone, read-out: 1-MIC-MRSA), 500 µg/mL; with MRSA (setting [6]) it was 500 µg/mL.

Turning to `CCCCCCCCO[C@@H]1O[C@H](CO)[C@@H](O)[C@H](O)[C@H]1O` [Octyl glucoside, octyl glucoside], the 2-MIC- with MRSA (setting [4]) is given as 1001 ppm.

Consider `O=C(/C=C/C=C/c1ccc2c(c1)OCO2)N1CCCCC1` [Piperine, piperine], for which the MIC in the assay on E. coli (setting [2]) was found to be 1000 µg/mL; in the assay on E. coli (setting [3]), 1000 µg/mL; in the assay on MRSA (MRSA, read-out: 1-MIC-), 1000 µg/mL; in the assay on MRSA (MRSA, read-out: 2-MIC-) it was 1000 µg/mL; in the assay with MRSA (MRSA, read-out: 2-MIC-MRSA), 1000 µg/mL.

In the case of `[O-][n+]1ccccc1S` [Pyrithione, pyrithione], the MIC with E. coli (read-out: 2-MIC-) stood at 6.25 µg/mL; with MRSA (MRSA, read-out: 2-MIC-), 0.79 µg/mL; with MRSA (MRSA, read-out: 2-MIC-MRSA), 0.79 µg/mL.

Take `O=C(O)c1ccccc1O` [Salicylic acid, salicylic acid]: the MIC with E. coli (Table 3, MIC of Component 3 alone against E. coli, read-out: 3-MIC-) is 1000 µg/mL; with MRSA (MRSA, Table 5, Component 3 alone, read-out: 3-MIC-MRSA), 1000 µg/mL; in the assay on MRSA (Table 2, MIC of Component 3 alone against MRSA, read-out: 3-MIC-), 1000 µg/mL.

As to `O=C(O)CN(CCN(CC(=O)O)CC(=O)O)CC(=O)O.[K]` [Sample K2EDTA, potassium ethylenediaminetetraacetic acid], the MIC in the assay on E. coli (read-out: 3-MIC-) worked out at 1000 µg/mL; in the assay on MRSA (MRSA, read-out: 3-MIC-), 500 µg/mL; in the assay on MRSA (MRSA, read-out: 3-MIC-MRSA), 500 µg/mL.

In the case of `OCC1CCCO1` (stereo not shown) [THFA, tetrahydrofurfuryl alcohol], the MIC in the assay with MRSA (MRSA, read-out: Other-MIC-) was determined as 500 µg/mL.

Regarding `CC(=O)c1c(O)c(C)c(O)c2c1OC1=CC(=O)C(C(C)=O)C(=O)C12C` (stereo not shown) [Usnic Acid, usnic acid], the MIC in the assay on E. coli (setting [2]) is 1000 µg/mL; with E. coli (setting [3]), 1000 µg/mL; in the assay on MRSA (MRSA, read-out: 1-MIC-) it was 6.25 µg/mL; with MRSA (MRSA, read-out: 2-MIC-), 6.25 µg/mL; in the assay on MRSA (MRSA, read-out: 2-MIC-MRSA) it was 6.25 µg/mL.

Turning to `C[C@H]1c2cccc(O)c2C(O)=C2C(=O)[C@]3(O)C(O)=C(C(N)=O)C(=O)[C@@H](N(C)C)[C@@H]3[C@@H](O)[C@@H]21` [doxy, doxycycline], the “MIC Ab alone (B) QB” value with resistant E. coli worked out at 50 µg/mL.

For the compound `CN(C)[C@@H]1C(=O)C(C(N)=O)=C(O)[C@@]2(O)C(=O)C3=C(O)c4c(O)cccc4[C@@](C)(O)[C@H]3C[C@@H]12` [tetra, tetracycline], the “MIC Ab alone (B) QB” value in the assay with resistant E. coli stood at 400 µg/mL.

In the case of gentamicin, the “MIC Ab alone (B) QB” value in the assay with resistant E. coli was 100 µg/mL.
